{"source": "paper PMC4450297", "about": "“Screening Active Compounds from Garcinia Species Native to China Reveals Novel Compounds Targeting the STAT/JAK Signaling Pathway” (BioMed Research International, 2015)", "data": [{"tested_on": "J82", "assay": "Cell panel screen (CellTiter-Glo)", "assay_type": "cell-based, human", "details": "J82 (Urinary bladder), 20 micromolar, 72 hrs", "outline": "(§1)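 Compound, diluted from DMSO into culture medium, was added at a final 20 μM; control wells got equal DMSO. After 72 h, luminescent ATP signal was recorded and converted to percent inhibition.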", "units": {"Percent Inhibition": "%"}, "values": [{"smiles": "CC(C)=CCCC1(C)C=Cc2c(O)c3c(c(CC=C(C)C)c2O1)OC12C(=CC4CC1C(C)(C)OC2(CC=C(C)C(=O)O)C4=O)C3=O", "note": "(mixture of isomers) [GB8]", "Percent Inhibition": 99}]}, {"tested_on": "HEC-1-A", "assay": "Cell panel screen (CellTiter-Glo)", "assay_type": "cell-based, human", "details": "HEC-1-A (Uterus), 20 micromolar, 72 hrs", "outline": "as §1", "units": {"Percent Inhibition": "%"}, "values": [{"smiles": "CC(C)=CCCC1(C)C=Cc2c(O)c3c(c(CC=C(C)C)c2O1)OC12C(=CC4CC1C(C)(C)OC2(CC=C(C)C(=O)O)C4=O)C3=O", "note": "(mixture of isomers) [GB8]", "Percent Inhibition": 100}]}, {"tested_on": "T98G", "assay": "Cell panel screen (CellTiter-Glo)", "assay_type": "cell-based, human", "details": "T98G (Brain), 20 micromolar, 72 hrs", "outline": "as §1", "units": {"Percent Inhibition": "%"}, "values": [{"smiles": "CC(C)=CCCC1(C)C=Cc2c(O)c3c(c(CC=C(C)C)c2O1)OC12C(=CC4CC1C(C)(C)OC2(CC=C(C)C(=O)O)C4=O)C3=O", "note": "(mixture of isomers) [GB8]", "Percent Inhibition": 100}]}, {"tested_on": "ChaGo-K-1", "assay": "Cell panel screen (CellTiter-Glo)", "assay_type": "cell-based, human", "details": "ChaGo-K-1 (Lung), 20 micromolar, 72 hrs", "outline": "as §1", "units": {"Percent Inhibition": "%"}, "values": [{"smiles": "CC(C)=CCCC1(C)C=Cc2c(O)c3c(c(CC=C(C)C)c2O1)OC12C(=CC4CC1C(C)(C)OC2(CC=C(C)C(=O)O)C4=O)C3=O", "note": "(mixture of isomers) [GB8]", "Percent Inhibition": 99}]}, {"tested_on": "A498", "assay": "Cell panel screen (CellTiter-Glo)", "assay_type": "cell-based, human", "details": "A498 (listed under Lung), 20 micromolar, 72 hrs", "outline": "as §1", "units": {"Percent Inhibition": "%"}, "values": [{"smiles": "CC(C)=CCCC1(C)C=Cc2c(O)c3c(c(CC=C(C)C)c2O1)OC12C(=CC4CC1C(C)(C)OC2(CC=C(C)C(=O)O)C4=O)C3=O", "note": "(mixture of isomers) [GB8]", "Percent Inhibition": 99}]}, {"tested_on": "HCC1937", "assay": "Cell panel screen (CellTiter-Glo)", "assay_type": "cell-based, human", "details": "HCC1937 (Breast), 20 micromolar, 72 hrs", "outline": "as §1", "units": {"Percent Inhibition": "%"}, "values": [{"smiles": "CC(C)=CCCC1(C)C=Cc2c(O)c3c(c(CC=C(C)C)c2O1)OC12C(=CC4CC1C(C)(C)OC2(CC=C(C)C(=O)O)C4=O)C3=O", "note": "(mixture of isomers) [GB8]", "Percent Inhibition": 100}]}, {"tested_on": "CW-2", "assay": "Cell panel screen (CellTiter-Glo)", "assay_type": "cell-based, human", "details": "CW-2 (Colon), 20 micromolar, 72 hrs", "outline": "as §1", "units": {"Percent Inhibition": "%"}, "values": [{"smiles": "CC(C)=CCCC1(C)C=Cc2c(O)c3c(c(CC=C(C)C)c2O1)OC12C(=CC4CC1C(C)(C)OC2(CC=C(C)C(=O)O)C4=O)C3=O", "note": "(mixture of isomers) [GB8]", "Percent Inhibition": 99}]}, {"tested_on": "ZR-75-30", "assay": "Cell panel screen (CellTiter-Glo)", "assay_type": "cell-based, human", "details": "ZR-75-30 (Breast), 20 micromolar, 72 hrs", "outline": "as §1", "units": {"Percent Inhibition": "%"}, "values": [{"smiles": "CC(C)=CCCC1(C)C=Cc2c(O)c3c(c(CC=C(C)C)c2O1)OC12C(=CC4CC1C(C)(C)OC2(CC=C(C)C(=O)O)C4=O)C3=O", "note": "(mixture of isomers) [GB8]", "Percent Inhibition": 99}]}, {"tested_on": "Bel-7402", "assay": "Cell panel screen (CellTiter-Glo)", "assay_type": "cell-based, human", "details": "Bel-7402 (Liver), 20 micromolar, 72 hrs", "outline": "as §1", "units": {"Percent Inhibition": "%"}, "values": [{"smiles": "CC(C)=CCCC1(C)C=Cc2c(O)c3c(c(CC=C(C)C)c2O1)OC12C(=CC4CC1C(C)(C)OC2(CC=C(C)C(=O)O)C4=O)C3=O", "note": "(mixture of isomers) [GB8]", "Percent Inhibition": 99}]}, {"tested_on": "C3A", "assay": "Cell panel screen (CellTiter-Glo)", "assay_type": "cell-based, human", "details": "C3A (Liver), 20 micromolar, 72 hrs", "outline": "as §1", "units": {"Percent Inhibition": "%"}, "values": [{"smiles": "CC(C)=CCCC1(C)C=Cc2c(O)c3c(c(CC=C(C)C)c2O1)OC12C(=CC4CC1C(C)(C)OC2(CC=C(C)C(=O)O)C4=O)C3=O", "note": "(mixture of isomers) [GB8]", "Percent Inhibition": 99}]}, {"tested_on": "RL95", "assay": "Cell panel screen (CellTiter-Glo)", "assay_type": "cell-based, human", "details": "RL95 (Uterus), 20 micromolar, 72 hrs", "outline": "as §1", "units": {"Percent Inhibition": "%"}, "values": [{"smiles": "CC(C)=CCCC1(C)C=Cc2c(O)c3c(c(CC=C(C)C)c2O1)OC12C(=CC4CC1C(C)(C)OC2(CC=C(C)C(=O)O)C4=O)C3=O", "note": "(mixture of isomers) [GB8]", "Percent Inhibition": 100}]}, {"tested_on": "T47D", "assay": "Cell panel screen (CellTiter-Glo)", "assay_type": "cell-based, human", "details": "T47D (Breast), 20 micromolar, 72 hrs", "outline": "as §1", "units": {"Percent Inhibition": "%"}, "values": [{"smiles": "CC(C)=CCCC1(C)C=Cc2c(O)c3c(c(CC=C(C)C)c2O1)OC12C(=CC4CC1C(C)(C)OC2(CC=C(C)C(=O)O)C4=O)C3=O", "note": "(mixture of isomers) [GB8]", "Percent Inhibition": 100}]}, {"tested_on": "HCC1395", "assay": "Cell panel screen (CellTiter-Glo)", "assay_type": "cell-based, human", "details": "HCC1395 (Breast), 20 micromolar, 72 hrs", "outline": "as §1", "units": {"Percent Inhibition": "%"}, "values": [{"smiles": "CC(C)=CCCC1(C)C=Cc2c(O)c3c(c(CC=C(C)C)c2O1)OC12C(=CC4CC1C(C)(C)OC2(CC=C(C)C(=O)O)C4=O)C3=O", "note": "(mixture of isomers) [GB8]", "Percent Inhibition": 99}]}, {"tested_on": "MSTO-211-H", "assay": "Cell panel screen (CellTiter-Glo)", "assay_type": "cell-based, human", "details": "MSTO-211-H (Lung), 20 micromolar, 72 hrs", "outline": "as §1", "units": {"Percent Inhibition": "%"}, "values": [{"smiles": "CC(C)=CCCC1(C)C=Cc2c(O)c3c(c(CC=C(C)C)c2O1)OC12C(=CC4CC1C(C)(C)OC2(CC=C(C)C(=O)O)C4=O)C3=O", "note": "(mixture of isomers) [GB8]", "Percent Inhibition": 100}]}, {"tested_on": "C8166", "assay": "Cell panel screen (CellTiter-Glo)", "assay_type": "cell-based, human", "details": "C8166 (Leukemia), 20 micromolar, 72 hrs", "outline": "as §1", "units": {"Percent Inhibition": "%"}, "values": [{"smiles": "CC(C)=CCCC1(C)C=Cc2c(O)c3c(c(CC=C(C)C)c2O1)OC12C(=CC4CC1C(C)(C)OC2(CC=C(C)C(=O)O)C4=O)C3=O", "note": "(mixture of isomers) [GB8]", "Percent Inhibition": 100}]}, {"tested_on": "BT-549", "assay": "Cell panel screen (CellTiter-Glo)", "assay_type": "cell-based, human", "details": "BT-549 (Breast), 20 micromolar, 72 hrs", "outline": "as §1", "units": {"Percent Inhibition": "%"}, "values": [{"smiles": "CC(C)=CCCC1(C)C=Cc2c(O)c3c(c(CC=C(C)C)c2O1)OC12C(=CC4CC1C(C)(C)OC2(CC=C(C)C(=O)O)C4=O)C3=O", "note": "(mixture of isomers) [GB8]", "Percent Inhibition": 100}]}, {"tested_on": "NCI-H1694", "assay": "Cell panel screen (CellTiter-Glo)", "assay_type": "cell-based, human", "details": "NCI-H1694 (Lung), 20 micromolar, 72 hrs", "outline": "as §1", "units": {"Percent Inhibition": "%"}, "values": [{"smiles": "CC(C)=CCCC1(C)C=Cc2c(O)c3c(c(CC=C(C)C)c2O1)OC12C(=CC4CC1C(C)(C)OC2(CC=C(C)C(=O)O)C4=O)C3=O", "note": "(mixture of isomers) [GB8]", "Percent Inhibition": 100}]}, {"tested_on": "BT-474", "assay": "Cell panel screen (CellTiter-Glo)", "assay_type": "cell-based, human", "details": "BT-474 (Breast), 20 micromolar, 72 hrs", "outline": "as §1", "units": {"Percent Inhibition": "%"}, "values": [{"smiles": "CC(C)=CCCC1(C)C=Cc2c(O)c3c(c(CC=C(C)C)c2O1)OC12C(=CC4CC1C(C)(C)OC2(CC=C(C)C(=O)O)C4=O)C3=O", "note": "(mixture of isomers) [GB8]", "Percent Inhibition": 99}]}]}
